One test has as its system HL60 (leukemia). Kind of test: In vitro cytotoxic activity MTT assay, HL60. The format is cell-based. Particulars: Homo sapiens, HL-60; HL60 cells, exposed for 96 hours, 50% inhibition of cell proliferation; read-out: Cytotoxicity activity IC50, HL60 (leukemia). The method, then: (§1) Compounds 1-16 were screened for their in vitro cytotoxic activity utilizing a 3-(4,5-dimethyl-thiazol-2-yl)-2,5-diphenyltetrazolium bromide (MTT) assay against selected cancer human cell lines consisting of PC3 (prostate), HCT116 (colon), A375 (melanoma), H1299 (lung), MIAPaCa-2 (pancreas), HL60 (leukemia), MCF7 (breast), MDA-MB-231 (breast) (T. Mosmann, J. Immunol. Meth., 1983, 65, 55-63). The cells were cultured at 37° C. in RMPI1640 medium supplemented with 10% fetal bovine serum, 50 IU/mL penicillin, and 50 μg/mL streptomycin in a 5% CO2 incubator. All cells were sub-cultured 3 times/week by trypsinisation. Viable cells were seeded and allowed to adhere for 12 hours before a test drug was added in 96-well plates at an initial density of 1.0×10^5 cells/mL. Tumor cell lines were separately exposed to various concentrations of the tested compounds followed by incubation at a temperature of 37° C. during 96 hours inside a medium of fresh RMPI 1640. Cells were subsequently incubated at 37° C. using MTT at 0.5 mg/mL during 4 hours. After removal of supernatant, formazan crystals were dissolved in isopropanol and the optical density was measured at 570 nm. CX-4945 was used as a positive control.
For orientation: Tetrazolium dyes change colour on reduction, which living cells bring about.

A further test concerns MIAPaCa-2 (pancreas). Kind of test: In vitro cytotoxic activity MTT assay, MIAPaCa-2. The conditions noted are these: Homo sapiens, MIA PaCa-2; MIAPaCa-2 cells, exposed for 96 hours, 50% inhibition of cell proliferation; read-out: Cytotoxicity activity IC50, MIAPaCa-2 (pancreas). The test is classed as cell-based. As for the experimental part:
as §1

The subject of a further test is MDA-MB-231 (breast). Kind of test: In vitro cytotoxic activity MTT assay, MDA-MB-231. The format is cell-based. The conditions noted are these: Homo sapiens; MDA-MB-231 cells, exposed for 96 hours, 50% inhibition of cell proliferation; read-out: Cytotoxicity activity IC50, MDA-MB-231 (breast). As for the experimental part: as §1
A further test concerns PC3 (prostate). Kind of test: In vitro cytotoxic activity MTT assay, PC3. The format is cell-based. The conditions noted are these: Homo sapiens, PC-3; PC3 cells, exposed for 96 hours, 50% inhibition of cell proliferation; read-out: Cytotoxicity activity IC50, PC3 (prostate). As for the experimental part:
as §1

The target in test [1] is T1, recombinant human CK2 (RRββ-holoenzyme) (Homo sapiens, UniProt P68400).
T1 construct: purchased Millipore
Kind of test: CK2 Kinase Assay (33P-ATP, filter plate). The format is biochemical. Particulars: recombinant human CK2, final ATP 15 μM, 10 min at 30° C.; read-out: protein kinase CK2 IC50. As for the experimental part:
CK2 Kinase Assay was conducted using the protocol as described in Pierre F. et al; J. Med. Chem. 2011, 54, 635-654. The tested compounds in aqueous solution were added at a volume of 10 μL to a reaction mixture comprising 10 μL of assay dilution buffer (ADB; 20 mM MOPS, pH 7.2, 25 mM β-glycerol phosphate, 5 mM EGTA, 1 mM sodium orthovanadate, and 1 mM dithiothreitol), 10 μL of substrate peptide (RRRDDDSDDD, dissolved in ADB at a concentration of 1 mM), 10 μL of recombinant human CK2 (RRββ-holoenzyme, 25 ng dissolved in ADB; Millipore). Reactions were initiated by the addition of 10 μL of ATP solution (90% 75 mMMgCl2, 75 μM ATP (final ATP concentration:15 μM) dissolved in ADB; 10% [γ-33P] ATP (stock 1mCi/100 μL; 3000 Ci/mmol (Perkin-Elmer) and maintained for 10 min at 30° C. The reactions were quenched with 100 μL of 0.75% phosphoric acid and then transferred to and filtered through a phosphor cellulose filter plate (Millipore). After washing each well five times with 0.75% phosphoric acid, the plate was dried under vacuum for 5 min and, following the addition of 15 μL of scintillation fluid to each well, the residual radioactivity was measured using a Wallac […]. The IC50 values were derived from eight concentrations of test inhibitors.

The test system of the next test is MCF7 (breast). The test can be described thus: In vitro cytotoxic activity MTT assay, MCF7. The test is classed as cell-based. The conditions noted are these: Homo sapiens; MCF7 cells, exposed for 96 hours, 50% inhibition of cell proliferation; read-out: Cytotoxicity activity IC50, MCF7 (breast). As for the experimental part: as §1
Another test has as its system H1299 (lung). Kind of test: In vitro cytotoxic activity MTT assay, H1299. The test is classed as cell-based. Particulars: Homo sapiens, NCI-H1299; H1299 cells, exposed for 96 hours, 50% inhibition of cell proliferation; read-out: Cytotoxicity activity IC50, H1299 (lung). The method, then:
as §1

The next test concerns HCT116 (colon). Kind of test: In vitro cytotoxic activity MTT assay, HCT116. The format is cell-based. The conditions noted are these: Homo sapiens, HCT-116; HCT116 cells, exposed for 96 hours, 50% inhibition of cell proliferation; read-out: Cytotoxicity activity IC50, HCT116 (colon). The method, then:
as §1

A further test has as its system A375 (melanoma). The test can be described thus: In vitro cytotoxic activity MTT assay, A375. The test is classed as cell-based. Particulars: Homo sapiens, A-375; A375 cells, exposed for 96 hours, 50% inhibition of cell proliferation; read-out: Cytotoxicity activity IC50, A375 (melanoma). The method, then:
as §1

These results are taken from patent US11981676B1, “Pyrazolo[4,3-c][2,6]naphthyridines as CK2 inhibitors” (KING FAISAL UNIVERSITY, priority 2024, dated 2024).

What is called IC50 is the concentration needed to halve the response being measured.

T1 sequence (P68400 whole entry): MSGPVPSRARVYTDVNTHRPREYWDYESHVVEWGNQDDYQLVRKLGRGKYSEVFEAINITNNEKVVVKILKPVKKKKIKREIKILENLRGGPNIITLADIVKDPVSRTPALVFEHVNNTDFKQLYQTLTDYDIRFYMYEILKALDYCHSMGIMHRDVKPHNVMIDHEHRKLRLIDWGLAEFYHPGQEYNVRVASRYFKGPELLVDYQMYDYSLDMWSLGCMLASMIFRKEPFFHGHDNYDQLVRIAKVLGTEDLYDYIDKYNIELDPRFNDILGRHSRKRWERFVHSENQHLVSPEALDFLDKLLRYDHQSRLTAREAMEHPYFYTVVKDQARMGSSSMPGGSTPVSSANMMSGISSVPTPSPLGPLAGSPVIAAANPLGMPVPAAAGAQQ
T1 sequence (P67870 whole entry partner): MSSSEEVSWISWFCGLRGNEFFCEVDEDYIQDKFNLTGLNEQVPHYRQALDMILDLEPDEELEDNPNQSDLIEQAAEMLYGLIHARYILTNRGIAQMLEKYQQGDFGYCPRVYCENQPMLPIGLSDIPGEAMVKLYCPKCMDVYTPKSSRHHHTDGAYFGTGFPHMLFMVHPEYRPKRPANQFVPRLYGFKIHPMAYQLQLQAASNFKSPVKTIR

Regarding `O=C(O)c1n[nH]c2c1nc(Nc1cccc(Cl)c1)c1ccncc12` [Compound 1, 5-((3-chlorophenyl)amino)-1H-pyrazolo[4,3-c][2,6]naphthyridine-3-carboxylic acid], the IC50 in the test on HL60 (leukemia) was 3000 nM; in the test on MIAPaCa-2 (pancreas), 900 nM; in the test with MDA-MB-231 (breast) it was 4100 nM; in the test on PC3 (prostate), 1800 nM; in test [1], 31 nM; in the test with MCF7 (breast) it was 4900 nM. In addition, the IC50 worked out at 2200 nM with H1299 (lung), 1900 nM with HCT116 (colon) and 4300 nM in the test with A375 (melanoma).
